In patent US20160257697A1, “THIOPHENE-SUBSTITUTED TETRACYCLIC COMPOUNDS AND METHODS OFUSE THEREOF FOR THE TREATMENT OF VIRAL DISEASES” (priority 2013, published 2016):
Like-named read-outs stand apart in the source and are kept apart here.

How the values were obtained:
Test in all cases: microbe, parasite or virus in culture
Format in all cases: cell-based, Hepatitis C virus (HCV)
Details in all cases: Replicon Assay A
[1] = tested on: HCV replicon 2B
Method in brief: (§1)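 Compound is added to replicon cells plated at 2000 cells/well (0.5% DMSO, 5% FBS). After 3 days the cells are washed and lysed, and HCV RNA and cyclophilin mRNA are quantified by multiplex RT-PCR against a standard curve of known replicon total RNA.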

[2] = tested on: HCV replicon 1A
Method in brief: as §1

[3] = tested on: HCV replicon 1AY93H
Method in brief: as §1

[4] = read-out: 1A Y93H IC50, replicon 1AY93H
[5] = read-out: 2B IC50, HCV replicon 2B
[6] = read-out: 1A Y93H IC50, HCV replicon 1A Y93H
[7] = Hepatitis C virus, read-out: 2B IC50, HCV replicon 2B
[8] = Hepatitis C virus, HCV replicon 1A
[9] = Hepatitis C virus, read-out: 1A Y93H IC50, HCV replicon 1A Y93H

COC(=O)NC(C(=O)N1CCC[C@H]1c1ncc(-c2ccc3c(c2)cc2n3C(c3ccc(C4CC4)s3)Oc3cc(-c4cnc([C@@H]5CCCN5C(=O)[C@@H](NC(=O)OC)C(C)C)[nH]4)cc(F)c3-2)[nH]1)C1CCO[C@H](C)C1 (single isomer, unassigned) [Compound 141] was tested, and the IC50 ([1]; read-out: 2B IC50, replicon 2B) was 21.4 nM, the IC50 ([2]; replicon 1A) was 0.0584 nM and the IC50 [3, 4] was 12.8 nM.

Work on COC(=O)N[C@H](C(=O)N1CCC[C@H]1c1ncc(-c2cc(F)c3c(c2)OC(c2ccc(CC(F)(F)F)s2)n2c-3cc3cc(-c4cnc([C@@H]5CCCN5C(=O)[C@@H](NC(=O)OC)C(C)C)[nH]4)ccc32)[nH]1)C(C)C (single isomer, unassigned) [Compound 124] yielded an IC50 ([1]; Hepatitis C virus, read-out: 2B IC50 (nM), replicon 2B) of 3.4 nM, an IC50 ([2]; Hepatitis C virus, replicon 1A) of 0.0018 nM and an IC50 ([3]; Hepatitis C virus, read-out: 1A Y93H IC50 (nM), replicon 1AY93H) of 1.38 nM.

For COC(=O)N[C@H](C(=O)N1CCC[C@H]1c1ncc(-c2cc(F)c3c(c2)OC(c2cc4c(s2)CCC4)n2c-3cc3cc(-c4cnc([C@@H]5C[C@H]6C[C@H]6N5C(=O)[C@@H](NC(=O)OC)C5C[C@@H](C)O[C@@H](C)C5)[nH]4)ccc32)[nH]1)C(C)C (single isomer, unassigned) [Compound 552], the IC50 [1, 5] was 0.409 nM, the IC50 ([2]; HCV replicon 1A) was 0.00978 nM and the IC50 [3, 6] was 0.839 nM.

In the case of COC(=O)NC(C(=O)N1CCC[C@H]1c1ncc(-c2cc(F)c3c(c2)OC(c2ccc(C4CC4)s2)n2c-3cc3cc(-c4cnc([C@@H]5CCCN5C(=O)[C@@H](NC(=O)OC)C(C)C)[nH]4)ccc32)[nH]1)C(C)(C)F (single isomer, unassigned) [Compound 70], the IC50 ([1]; read-out: 2B IC50, replicon 2B) is reported as 24.2 nM, the IC50 ([2]; Hepatitis C virus, replicon 1A) is reported as 0.0188 nM and the IC50 [3, 4] is reported as 10.5 nM.

In the case of COC(=O)N[C@H](C(=O)N1CCC[C@H]1c1ncc(-c2cc(C)c3c(c2)OC(c2cc4c(s2)CCC4)n2c-3cc3cc(-c4cnc([C@@H]5CCCN5C(=O)[C@@H](NC(=O)OC)C5CCOCC5)[nH]4)ccc32)[nH]1)C(C)C (single isomer, unassigned) [Compound 540], the IC50 [1, 7] is reported as 0.147 nM, the IC50 [2, 8] is reported as 0.00859 nM and the IC50 [3, 9] is reported as 2.14 nM.

Molecule COC(=O)NC(C(=O)N1CCC[C@H]1c1ncc(-c2ccc3c(c2)cc2n3C(c3ccc(C4CC4)s3)Oc3cc(-c4cnc([C@@H]5CCCN5C(=O)[C@@H](NC(=O)OC)C5CCOCC5)[nH]4)cc(F)c3-2)[nH]1)C(C)(C)F (single isomer, unassigned) [Compound 174] has an IC50 ([1]; read-out: 2B IC50, replicon 2B) of 0.16 nM, an IC50 ([2]; replicon 1A) of 0.0011 nM and an IC50 [3, 4] of 0.614 nM.

With COC(=O)N[C@H](C(=O)N1CCC[C@H]1c1ncc(-c2cc(F)c3c(c2)OC(c2ccc(C(F)(F)F)s2)n2c-3cc3cc(-c4cnc([C@@H]5CCCN5C(=O)[C@@H](NC(=O)OC)C5CCOCC5)[nH]4)ccc32)[nH]1)C(C)C (single isomer, unassigned) [Compound 655] the IC50 [1, 5] was 0.24 nM, the IC50 ([2]; HCV replicon 1A) was 0.0016 nM and the IC50 [3, 6] was 0.278 nM.

COC(=O)N[C@H](C(=O)N1CCC[C@H]1c1ncc(-c2ccc3c(c2)OC(c2cc(C)c(C)s2)n2c-3cc3cc(-c4cnc([C@@H]5C[C@H]6C[C@H]6N5C(=O)[C@@H](NC(=O)OC)C(C)C)[nH]4)ccc32)[nH]1)C(C)C (single isomer, unassigned) [Compound 501] gave an IC50 [1, 5] of 8.37 nM, an IC50 ([2]; HCV replicon 1A) of 0.024 nM and an IC50 [3, 6] of 4.35 nM.

With CCc1ccc(C2Oc3cc(-c4cnc([C@@H]5CCCN5C(=O)[C@@H](NC(=O)OC)C(C)C)[nH]4)cc(F)c3-c3cc4cc(-c5cnc([C@@H]6C[C@H]7C[C@H]7N6C(=O)C(NC(=O)OC)C6CCOC(C)(C)C6)[nH]5)ccc4n32)s1 (single isomer, unassigned) [Compound 203] the IC50 ([1]; read-out: 2B IC50, replicon 2B) was 0.83 nM, the IC50 ([2]; replicon 1A) was 0.0016 nM and the IC50 [3, 4] was 0.12 nM.

CCN(CC)[C@@H](C(=O)N1C[C@H](F)C[C@H]1c1nc(-c2ccc3c(c2)cc2n3C(c3cc(C)c(C)s3)Oc3cc(-c4c[nH]c([C@@H]5C[C@@H](F)CN5C(=O)[C@@H](NC(=O)OC)C(C)C)n4)ccc3-2)c[nH]1)c1ccccc1 (mixture of isomers) [Compound 724] showed an IC50 [1, 7] of 15.3 nM, an IC50 [2, 8] of 0.063 nM and an IC50 [3, 9] of 0.37 nM.

In the case of COC(=O)NC(C(=O)N1CCC[C@H]1c1ncc(-c2ccc3c(c2)cc2n3C(c3ccc(F)s3)Oc3cc(-c4cnc([C@@H]5CCCN5C(=O)[C@@H](NC(=O)OC)C(C)C)[nH]4)cc(F)c3-2)[nH]1)C1C[C@@H](C)O[C@@H](C)C1 (single isomer, unassigned) [Compound 349], the IC50 ([1]; read-out: 2B IC50, replicon 2B) is reported as 0.39 nM, the IC50 ([2]; replicon 1A) is reported as 0.0014 nM and the IC50 [3, 4] is reported as 0.266 nM.

With COC(=O)NC(C(=O)N1CCC[C@H]1c1ncc(-c2ccc3c(c2)cc2n3C(c3ccc(C4CC4)s3)Oc3cc(-c4cnc([C@@H]5CCCN5C(=O)[C@@H](NC(=O)OC)C(C)C)[nH]4)cc(F)c3-2)[nH]1)C1C[C@H](C)O[C@@H](C)C1 (single isomer, unassigned) [Compound 404] the IC50 ([1]; read-out: 2B IC50, replicon 2B) was 1.67 nM, the IC50 ([2]; replicon 1A) was 0.0022 nM and the IC50 [3, 4] was 1.25 nM.

COC(=O)N[C@H](C(=O)N1C[C@H](F)C[C@H]1c1nc(-c2ccc3c(c2)OC(c2ccc(C)s2)n2c-3cc3cc(-c4c[nH]c([C@@H]5C[C@H]6C[C@H]6N5C(=O)[C@@H](NC(=O)OC)C5CCOCC5)n4)ccc32)c[nH]1)C1CCOCC1 (single isomer, unassigned) [Compound 730] gave an IC50 [1, 5] of 0.13 nM, an IC50 ([2]; HCV replicon 1A) of 0.067 nM and an IC50 [3, 6] of 0.06 nM.
